According to a melting point compilation (Tetko et al.; mined from patent text by program, amines drawn as free bases though some values may be those of a salt):

Work on `C=CCOc1cc(-c2cc(=O)c3c(OC)cc(OCC4=COC(C)(C)O4)cc3o2)ccc1OC` yielded a melting point of 156 °C.
With `COc1ccc2ccccc2c1-c1c(C)c2c(c(C)c1P(=O)(c1ccccc1)c1ccccc1)COC2` the melting point was 105 to 107 °C.
Molecule `COc1cccc(Nc2c(N)cc(C(=O)O)cc2S(N)(=O)=O)c1` has a melting point of 232 to 234 °C.
For `COc1ccc(C2CCOCC2)c2sc(-c3ncc[nH]3)nc12`, the melting point was 220 to 224 °C.
Work on `CCCC(NC(=O)CN1C(=O)N(c2ccc(C)cc2)C2(CCCCC2)C1=O)c1ccccc1` (stereo not given) yielded a melting point of 208 to 210 °C.
With `CC(C)c1ccc(OCC(=O)N2C(=O)OC[C@H]2Cc2ccccc2)cc1` the melting point was 104 to 105 °C.
For `CCOc1ccnc(C(C)NC(=O)Nc2ccc(Br)cn2)c1F` (stereo not given), the melting point was 143 to 145 °C.
In the case of `N#Cc1ccc(NC(=O)c2ccc(-n3nc(C(F)(F)F)cc3C(F)(F)F)cc2)cc1`, the melting point is reported as 192 to 193 °C.
With `Cn1nnc2sc([N+](=O)[O-])cc2c1=O` the melting point was 164 to 168 °C.
`O=C(NCC12CC3CC(CC(C3)C1)C2)c1c(Cl)ccc2nc(N3C[C@@H]4C(C(=O)O)[C@@H]4C3)ccc12` (stereo not given in full) showed a melting point of 175 to 180 °C.
Work on `CN=C(NC#N)NCCSCc1ccco1` yielded a melting point of 78 to 82 °C.
With `COc1cc(S(C)=O)ccc1-c1nc2ncc(O)cc2[nH]1` (stereo not given) the melting point was 220 to 223 °C.
`Cc1c(-c2ccccn2)[nH]c2ncnc(Nc3cccc(Cl)c3)c12` showed a melting point of 171 to 172 °C.
Molecule `CCOC(=O)C1CCN(c2nc(COc3ccc(CO)cc3OC)c(C)s2)CC1` has a melting point of 84 to 85 °C.
With `O=C(O)Cc1nn(Cc2nc3cc(F)cc(F)c3s2)c(=O)c2ccccc12` the melting point was 178 °C.
For `CC(C)(C)C1CCC(=O)C(CC(=O)c2ccccc2)C1` (stereo not given), the melting point was 127 to 129 °C.
`CC(C)=Cc1ccc(/C=C/CCl)cc1` gave a melting point of 48 to 50 °C.
`O=C(Cl)C=Cc1c(Cl)cccc1Cl` showed a melting point of 64.5 to 66 °C.
In the case of `O=C(O)Cc1c(C(=O)O)c2cc(Oc3ccc(Cl)c(Cl)c3)ccc2n1-c1ccc(OCC(F)(F)F)cc1`, the melting point is reported as 205 to 210 °C.
`O=COCc1cc2c3ccccc3[nH]c(=O)n2n1` showed a melting point of 190 to 192 °C.
`COCCOCC(=O)N1CCC(Oc2cc3ncnc(Nc4cccc(Cl)c4F)c3cc2OC)CC1` gave a melting point of 110 to 111 °C.
In the case of `c1ccc(CCc2nc(COc3ccc(CCCn4ccnc4)cc3)co2)cc1`, the melting point is reported as 67 to 68 °C.
For `O=C1CCCCCN1C(=O)c1ccccc1`, the melting point was 69 °C.
Molecule `CN1CCN(c2nc3ccccc3[nH]2)CC1` has a melting point of 222 to 224 °C.
With `CCOC(=O)c1cn2c(n1)SCCC2` the melting point was 99 to 100 °C.
`CC(C)(C#N)NC(=O)c1ccccc1Cl` gave a melting point of 59 to 65 °C.
`CN1C(=O)C=C(c2ccccc2)C1(C)O` (stereo not given) gave a melting point of 148 to 152 °C.
Work on `C=C(C)Cn1c(=O)n(C)c(=O)c2c(SCCCO)n(Cc3cccc4ccccc34)nc21` yielded a melting point of 138 to 139 °C.
With `CC1=CC(O)C(OC(=O)c2ccco2)C(C)(C)CC1=O` (stereo not given) the melting point was 102 to 104 °C.
`CCCC(=O)c1cc(-c2ccc(C)cc2)no1` showed a melting point of 86 to 87 °C.
`CC(=O)c1ccc(S(=O)(=O)Nc2cccnc2Nc2ccccc2)cc1` gave a melting point of 171 to 173 °C.
`COc1ccc(-n2nc(-c3c(-c4ccccc4)nn4ccccc34)ccc2=O)cc1` gave a melting point of 158 °C.
`CCOC(=O)C(Cc1cc2cccnc2n(-c2cccc([N+](=O)[O-])c2)c1=O)C(=O)c1ccncc1` (stereo not given) showed a melting point of 72 to 73 °C.
Work on `COn1c(C(C)(C)C)nc2c(N)nc3ccccc3c21` yielded a melting point of 195 to 197 °C.
For `COc1cc2c(cc1CCCCN(C)C)[nH]c1cc(-c3ccccc3Cl)c3c(c12)C(=O)NC3=O`, the melting point was 162 to 164 °C.
In the case of `N#Cc1cccnc1CC1C(=O)C2(COc3cc4c(cc32)OCCO4)c2ccccc21` (stereo not given), the melting point is reported as 230 to 233 °C.
Molecule `Cc1ccc(-c2ccc(C(=O)c3ccc(Cl)cc3Cl)cc2)cc1` has a melting point of 184 to 185 °C.
`C1=C(c2ccccc2)CCN(Cc2c[nH]c3ncccc23)C1` showed a melting point of 177 to 179 °C.
`N#CCCNC(=O)c1cccc(-c2ccc3c(c2)N(CCc2ccc(Cl)cc2Cl)CC3)c1` gave a melting point of 147 to 149 °C.
In the case of `FC(F)(F)C(c1ccc(Cl)cc1Cl)c1ccc(Cl)cc1Cl`, the melting point is reported as 84 to 86 °C.
